Assay results as given in patent US8404651B2, “Compositions and methods for treating viral infections” (priority 2008, dated 2013).
Values joined by “and” are separate entries in the source; they are usually repeats but may differ in a detail not shown here. Equal values may be shown once. Read-outs that look alike come from different tables or passages of the source.

Columns and labels:
[1] = system: HCV replicon cell line, AVA5 [sub-genomic (CON1), genotype 1b]; experiment: microbe, parasite or virus in culture; type: cell-based; conditions: genotype 1B; for EC50: read-out: Control 2 (μM) EC50; for EC90: read-out: Control 2 (μM) EC90
Description: (§1) Primary anti-HCV assay-Antiviral activity against HCV was assessed in a 3-day assay (Okuse, et al., 2005; Antiviral. Res. 65:23; Korba, et al., 2008, Antiviral Res. 77:56) using the stably-expressing HCV replicon cell line, AVA5 [sub-genomic (CON1), genotype 1b](Blight, et al., 2000, Science 290:1972) maintained as sub-confluent cultures on 96-well plates. Antiviral activity was determined by blot hybridization analysis of intracellular HCV RNA (normalized to the level of cellular B-actin RNA in each culture sample). Cytotoxicity was assessed by neutral red dye uptake in cultures maintained in parallel plates.
(§2) EC50, EC90, and CC50 values were calculated by linear regression analysis (MS EXCEL®, QUATTROPRO®) using data combined from all treated cultures Korba & Gerin, 1992, Antivir. Res. 19:55; Okuse, et al., 2005, Antivir. Res. 65:23). Standard deviations for EC50 and EC90 values were calculated from the standard errors generated by the regression analyses. […] The Selectivity index (S.I.) was calculated as CC50/EC50. Recombinant human interferon 2b (PBL laboratories, Inc.) was used as an assay control.
(§3) For each combination of agents, three concentration ratios, centered on the use of the compounds at equipotent antiviral concentrations, were used. A dilution series (six three-fold-concentration steps, beginning at the approximate EC90) was then generated with the concentration ratio of the two agents remaining the same in each dilution step. Toxicity analysis was performed as described above for the monotherapies. Analysis of drug interactions in the combination studies was determined by the use of the […] program (Biosoft, Inc., Cambridge, United Kingdom). This program evaluates synergy, additivity, or antagonism by use of several methodologies, including that of Chou and Talalay with a statistical analysis employing the Monte Carlo technique to provide confidence limits, fraction-affected-confidence interval (FA-CI) plots, isobolograms, and median-effect plots. (Belenkii, M. S. Schinazi, R. A method for the analysis of combination therapies with statistical analysis. Antiviral Res. 25, 11, 2005).

[2] = system: HCV replicon cell line, AVA5; experiment: Cytotoxicity by neutral red dye uptake in replicon cultures in parallel plates; conditions: read-out: Control 2 (μM) CC50; genotype 1B
Description: as §1, §2, §3

[3] = system: replicon cell line containing H/FL-Neo (genotype 1a (H77), full length construct); experiment: Secondary anti-HCV assay: genotype 1a replicon, format of the primary assay; type: cell-based; conditions: genotype 1a replicon
Source text: Res. 19:55; Okuse, et al., 2005, Antivir. Res. 65:23).
Secondary anti-HCV assay—This assay assesses activity against different HCV genotypes using the format described for the primary assay. Activity against the genotype 1b HCV is included for comparison. Currently available is a replicon cell line containing H/FL-Neo (genotype 1a (H77), full length construct) (Blight, et al., 2003, J. Virol. 77:3181).

WP2 uvrA = experiment: In vitro bacterial mutagenicity assay (pre-incubation), strain WP2 uvrA; conditions: positive control, S9 +, 15 μg/plate
Description: (§4) Dispense 100 microliter aliquots of the appropriate bacterial cultures into sample tubes stored on ice. Dispense aliquots of the vehicle, positive controls or dose formulations into the appropriate sample tubes. 2 mL top Agar and HBT cap was added to the sample tube, inverted three times and poured into MG plate. The lid was replaced on the plate and left on a level surface to let the agar harden. The plates were incubated in an incubator for 48 to 72 h. The background lawn and count the number of revertants was checked for each plate.

TA1535 = experiment: In vitro bacterial mutagenicity assay (pre-incubation), strain TA1535; conditions: positive control; for Number of revertants x1, x2, x3: individual plates; for Fold response: vs vehicle control
Description: as §4

TA98 = experiment: In vitro bacterial mutagenicity assay (pre-incubation), strain TA98; conditions: positive control, TA98, S9 0, 1 μg/plate
Description: as §4

TA1537 = experiment: In vitro bacterial mutagenicity assay (pre-incubation), strain TA1537; conditions: positive control, TA1537, S9 0, 10 μg/plate
Description: as §4

TA100 = experiment: In vitro bacterial mutagenicity assay (pre-incubation), strain TA100; conditions: positive control, TA100, S9 0, 0.5 μg/plate
Description: as §4

[4] = Cytotoxicity by neutral red dye uptake in replicon cultures in parallel plates; conditions: human, AVA5 HCV replicon cells (sub-genomic CON1, genotype 1b)
Description: as §1, §2, §3

C[C@@]1(O)[C@H](O)[C@@H](CO)O[C@H]1n1ccc(N)nc1=O [2′CmeCyt]
EC50 [1]: 1.4 µM | EC90 [1]: 5.3 µM | CC50 [2]: > 300 µM

COC1C(OP(=O)(OC[C@H]2O[C@@H](n3cnc4c(N)ncnc43)CC2O)SCOC(=O)C(C)(C)C)[C@@H](CO)O[C@H]1n1ccc(=O)[nH]c1=O (some centres unmarked) [Compound 1]
EC50 ([3]; 2-fold depression of intracellular HCV RNA, read-out: EC50 HCV Type 1A): 2900 nM | EC90 ([3]; 10-fold depression of intracellular HCV RNA, read-out: EC90 HCV type 1A): 8.5 µM

Nc1ccc2cc3ccccc3cc2c1 [Compound 2AA, reference compound]
Number of revertants mean (WP2 uvrA): 373 | Number of revertants x1, x2, x3 (WP2 uvrA; individual plates): 476 and 357 and 285 | Fold response (WP2 uvrA; vs vehicle control): 9.6 | Number of revertants mean (TA1535; TA1535, S9 +, 5 μg/plate): 254 | Number of revertants x1, x2, x3 (TA1535; TA1535, S9 +, 5 μg/plate): 263 and 242 and 257 | Fold response (TA1535; TA1535, S9 +, 5 μg/plate): 11

O=[N+]([O-])c1ccc2c(c1)Cc1ccccc1-2 [Compound 2NF, reference compound]
Number of revertants mean (TA98): 139 | Number of revertants x1, x2, x3 (TA98; individual plates): 151 and 114 and 153 | Fold response (TA98; vs vehicle control): 4.5

Nc1c2ccccc2nc2ccccc12 [Compound 9AC, reference compound]
Number of revertants mean (TA1537): 741 | Number of revertants x1, x2, x3 (TA1537; individual plates): 728 and 910 and 585 | Fold response (TA1537; vs vehicle control): 57

[N-]=[N+]=[N-].[Na+] [NaAz, reference compound]
Number of revertants mean (TA100): 560 | Number of revertants x1, x2, x3 (TA100; individual plates): 568 and 569 and 543 | Fold response (TA100; vs vehicle control): 5.0 | Number of revertants mean (TA1535; TA1535, S9 0, 0.5 μg/plate): 321 | Number of revertants x1, x2, x3 (TA1535; TA1535, S9 0, 0.5 μg/plate): 340 and 312 (2×) | Fold response (TA1535; TA1535, S9 0, 0.5 μg/plate): 12

CCC[C@H](NC(=O)[C@@H]1[C@H]2CCC[C@H]2CN1C(=O)[C@@H](NC(=O)[C@@H](NC(=O)c1cnccn1)C1CCCCC1)C(C)(C)C)C(=O)C(=O)NC1CC1 [VX-950]
EC50 ([1]; Hepatitis C virus, Ava5): 0.249 µM | EC90 ([1]; Hepatitis C virus, Ava5): 0.892 µM | CC50 at 3 day [4]: 88 µM
